Source: patent US8598227B2, “Epoprostenol formulation and method of making thereof” (Actelion Pharmaceuticals Ltd., priority 2006, dated 2013)

Legend:
[1] = Solution stability of Epoprostenol in presence of 50 mg/ml of arginine; type: physicochemical; settings: 50 mg/ml arginine
Protocol: A solution of epoprostenol and 50 mg/ml of arginine was prepared and the stability of this solution at 5° C. was determined. The resulting data are presented in the Table 4: Stability of the same formulation was also conducted at pH 11.2; and the data are summarized in the Table 5 below: […]

[2] = Solution stability of reconstituted lyophile (epoprostenol 0.5 mg/ml, arginine 50 mg/ml, pH 13.0); type: physicochemical; settings: 50 mg/ml arginine
Protocol: In the next set of experiments, the pH of the solution containing epoprostenol and arginine was adjusted to 13.0 with sodium hydroxide, and lyophilized. Upon reconstitution of the lyophile with 1 ml of Water for Injection, the reconstituted solution contains 50 mg/ml arginine and 0.5 mg/ml epoprostenol. The pH of the solution is 13.0. The stability data are presented in Table 6 for 5° C. and Table 7 for 29° C. below: […]

[3] = Dilution stability of reconstituted lyophile diluted to 10 μg/ml in IV fluids; type: physicochemical
Protocol: Dilution studies were also conducted to determine whether the formulations of the present invention are suitable for IV infusion at room temperature. The stability studies were conducted at 25° C. and 30° C. to mimic the temperatures during the infusion over a 24 hour period in various large volume parenteral solutions.
To this end, the stability of the epoprostenol lyophile reconstituted and diluted to 10 μg/ml in normal saline was stability monitored for 48 hours at 25° C. and 30° C. Dilution stability of all three primary formulation batches was conducted in normal saline at 25° C. and 30° C. In addition to these studies, dilution stability studies on one lot of primary formulation batch were conducted at 25° C. and 30° C. in 5% Dextrose (D5W), WFI (in-house) and lactated Ringer's solution.
For the dilution studies, each vial was reconstituted with 5 ml of the diluent. The clear solution was transferred into a 50 ml volumetric flask. The vial was rinsed with 5 ml of diluent three times and the rinses were transferred to the flask. The contents of the flask were further diluted with the diluent and made up to the mark with the diluent. The pH of the diluted solution was measured and recorded. The contents of the flask were held at the temperatures noted and analyzed at predetermined time intervals.

[4] = cited from earlier work

With `CCCCC[C@H](O)/C=C/C1[C@H]2C/C(=C/CCCC(=O)[O-])OC2C[C@H]1O.[Na+]` (stereo partly drawn) [Epoprostenol, (5Z,9(alpha),11(alpha),13E,15S)-6,9-epoxy-11,15-dihydroxyprosta-5,13-dien-1-oic acid] the “% Assay of Epoprostenol by Area” value ([1]; pH 11.2, 5 ± 1° C., 4.0 HRS) was 99.5%, the “Area % of 6-keto et al. impurities” value ([1]; pH 11.2, 5 ± 1° C., 4.0 HRS) was 0.28% and the “% Assay of Epoprostenol by Area” value ([1]; pH 11.2, 5 ± 1° C., 7.0 HRS) was 99.0%. For the same compound, the “Area % of 6-keto et al. impurities” value ([1]; pH 11.2, 5 ± 1° C., 7.0 HRS) was 0.39%, the “% Assay of Epoprostenol by Area” value ([1]; pH 11.2, 5 ± 1° C., 10.0 HRS) was 98.6% and the “Area % of 6-keto et al. impurities” value ([1]; pH 11.2, 5 ± 1° C., 10.0 HRS) was 0.53%. For the same compound, the “% Assay of Epoprostenol by Area” value ([1]; pH 11.2, 5 ± 1° C., 11.5 HRS) was 98.3%, the “Area % of 6-keto et al. impurities” value ([1]; pH 11.2, 5 ± 1° C., 11.5 HRS) was 0.57% and the “% Assay of Epoprostenol by Area” value ([1]; pH 11.2, 5 ± 1° C., 17.5 HRS) was 97.3%. The “Area % of 6-keto et al. impurities” value ([1]; pH 11.2, 5 ± 1° C., 17.5 HRS) was 0.80%, the “% Assay of Epoprostenol by Area” value ([1]; pH 11.2, 5 ± 1° C., Initial) was 100.0% and the loss in potency ([1]; pH 11.9, 5° C., at 53 hours) was 1.4%. For the same compound, the “% Assay of Epoprostenol by Area” value ([1]; pH 11.9, 5 ± 1° C., 2 HRS) was 99.9%, the “Area % of 6-keto et al. impurities” value ([1]; pH 11.9, 5 ± 1° C., 2 HRS) was 0.19% and the “% Assay of Epoprostenol by Area” value ([1]; pH 11.9, 5 ± 1° C., 4 HRS) was 99.8%. The “Area % of 6-keto et al. impurities” value ([1]; pH 11.9, 5 ± 1° C., 4 HRS) was 0.19%, the “% Assay of Epoprostenol by Area” value ([1]; pH 11.9, 5 ± 1° C., 6 HRS) was 99.8% and the “Area % of 6-keto et al. impurities” value ([1]; pH 11.9, 5 ± 1° C., 6 HRS) was 0.21%. For the same compound, the “% Assay of Epoprostenol by Area” value ([1]; pH 11.9, 5 ± 1° C., 8 HRS) was 99.7%, the “Area % of 6-keto et al. impurities” value ([1]; pH 11.9, 5 ± 1° C., 8 HRS) was 0.22% and the “% Assay of Epoprostenol by Area” value ([1]; pH 11.9, 5 ± 1° C., 10 HRS) was 99.6%. The “Area % of 6-keto et al. impurities” value ([1]; pH 11.9, 5 ± 1° C., 10 HRS) was 0.23%, the “% Assay of Epoprostenol by Area” value ([1]; pH 11.9, 5 ± 1° C., 12.5 HRS) was 99.6% and the “Area % of 6-keto et al. impurities” value ([1]; pH 11.9, 5 ± 1° C., 12.5 HRS) was 0.25%. For the same compound, the “% Assay of Epoprostenol by Area” value ([1]; pH 11.9, 5 ± 1° C., 14.5 HRS) was 99.6%, the “Area % of 6-keto et al. impurities” value ([1]; pH 11.9, 5 ± 1° C., 14.5 HRS) was 0.26% and the “% Assay of Epoprostenol by Area” value ([1]; pH 11.9, 5 ± 1° C., 39 HRS) was 99.5%. For the same compound, the “Area % of 6-keto et al. impurities” value ([1]; pH 11.9, 5 ± 1° C., 39 HRS) was 0.63%, the “% Assay of Epoprostenol by Area” value ([1]; pH 11.9, 5 ± 1° C., 53 HRS) was 98.6% and the “Area % of 6-keto et al. impurities” value ([1]; pH 11.9, 5 ± 1° C., 53 HRS) was 1.15%. The “% Assay of Epoprostenol by Area” value ([1]; pH 11.9, 5 ± 1° C., 77 HRS) was 92.7%, the “Area % of 6-keto et al. impurities” value ([1]; pH 11.9, 5 ± 1° C., 77 HRS) was 2.05% and the “% Assay of Epoprostenol by Area” value ([1]; pH 11.9, 5 ± 1° C., 100 HRS) was 92.5%. The “Area % of 6-keto et al. impurities” value ([1]; pH 11.9, 5 ± 1° C., 100 HRS) was 2.10%, the “% Assay of Epoprostenol by Area” value ([1]; pH 11.9, 5 ± 1° C., 124 HRS) was 92.5% and the “Area % of 6-keto et al. impurities” value ([1]; pH 11.9, 5 ± 1° C., 124 HRS) was 2.25%. For the same compound, the “% Assay of Epoprostenol by Area” value ([1]; pH 11.9, 5 ± 1° C., Initial) was 100.0%, the “Area % of 6-keto et al. impurities” value ([1]; pH 11.9, 5 ± 1° C., Initial) was 0.15% and the loss of potency ([2]; pH 13.0, 5° C., over 480 hours) was 3.4%. For the same compound, the “loss of potency on average” value ([2]; pH 13.0, 5° C., over 480 hours) was 0.007 %/hour, the “% Assay of Epoprostenol by Area” value ([2]; pH 13.0, 5 ± 1° C., 14.5 Hours) was 99.8% and the “Area % of 6-keto PGF et al. impurities” value ([2]; pH 13.0, 5 ± 1° C., 14.5 Hours) was 0.20%. The “% Assay of Epoprostenol by Area” value ([2]; pH 13.0, 5 ± 1° C., 53 Hours) was 98.8%, the “% Assay of Epoprostenol by Area” value ([2]; pH 13.0, 5 ± 1° C., 124 Hours) was 98.0% and the “Area % of 6-keto PGF et al. impurities” value ([2]; pH 13.0, 5 ± 1° C., 124 Hours) was 0.40%. The “% Assay of Epoprostenol by Area” value ([2]; pH 13.0, 5 ± 1° C., 148 Hours) was 97.6%, the “Area % of 6-keto PGF et al. impurities” value ([2]; pH 13.0, 5 ± 1° C., 148 Hours) was 0.45% and the “% Assay of Epoprostenol by Area” value ([2]; pH 13.0, 5 ± 1° C., 192 Hours) was 97.3%. For the same compound, the “Area % of 6-keto PGF et al. impurities” value ([2]; pH 13.0, 5 ± 1° C., 192 Hours) was 0.47%, the “% Assay of Epoprostenol by Area” value ([2]; pH 13.0, 5 ± 1° C., 240 Hours) was 96.9% and the “Area % of 6-keto PGF et al. impurities” value ([2]; pH 13.0, 5 ± 1° C., 240 Hours) was 0.61%. For the same compound, the “% Assay of Epoprostenol by Area” value ([2]; pH 13.0, 5 ± 1° C., 480 Hours) was 96.6%, the “Area % of 6-keto PGF et al. impurities” value ([2]; pH 13.0, 5 ± 1° C., 480 Hours) was 0.70% and the “% Assay of Epoprostenol by Area” value ([2]; pH 13.0, 5 ± 1° C., Initial) was 100.0%. For the same compound, the “Area % of 6-keto PGF et al. impurities” value ([2]; pH 13.0, 5 ± 1° C., Initial) was 0.16%, the degradation ([2]; pH 13.0, 29° C., in 12 hours) was 1.5% and the “% Assay of Epoprostenol by Area” value ([2]; pH 13.0, 29 ± 1° C., 1 HRS) was 100.0%. For the same compound, the “Area % of 6-keto et al. impurities” value ([2]; pH 13.0, 29 ± 1° C., 1 HRS) was 0.087%, the “% Assay of Epoprostenol by Area” value ([2]; pH 13.0, 29 ± 1° C., 5 HRS) was 99.8% and the “Area % of 6-keto et al. impurities” value ([2]; pH 13.0, 29 ± 1° C., 5 HRS) was 0.18%. For the same compound, the “% Assay of Epoprostenol by Area” value ([2]; pH 13.0, 29 ± 1° C., 7 HRS) was 99.3%, the “Area % of 6-keto et al. impurities” value ([2]; pH 13.0, 29 ± 1° C., 7 HRS) was 0.21% and the “% Assay of Epoprostenol by Area” value ([2]; pH 13.0, 29 ± 1° C., 8 HRS) was 99.2%. For the same compound, the “Area % of 6-keto et al. impurities” value ([2]; pH 13.0, 29 ± 1° C., 8 HRS) was 0.25%, the “% Assay of Epoprostenol by Area” value ([2]; pH 13.0, 29 ± 1° C., 9 HRS) was 99.1% and the “Area % of 6-keto et al. impurities” value ([2]; pH 13.0, 29 ± 1° C., 9 HRS) was 0.29%. The “% Assay of Epoprostenol by Area” value ([2]; pH 13.0, 29 ± 1° C., 10 HRS) was 98.8%, the “Area % of 6-keto et al. impurities” value ([2]; pH 13.0, 29 ± 1° C., 10 HRS) was 0.28% and the “% Assay of Epoprostenol by Area” value ([2]; pH 13.0, 29 ± 1° C., 11 HRS) was 98.6%. For the same compound, the “Area % of 6-keto et al. impurities” value ([2]; pH 13.0, 29 ± 1° C., 11 HRS) was 0.29%, the “% Assay of Epoprostenol by Area” value ([2]; pH 13.0, 29 ± 1° C., 12 HRS) was 98.5% and the “Area % of 6-keto et al. impurities” value ([2]; pH 13.0, 29 ± 1° C., 12 HRS) was 0.30%. The “% Assay of Epoprostenol by Area” value ([2]; pH 13.0, 29 ± 1° C., 13 HRS) was 98.1%, the “Area % of 6-keto et al. impurities” value ([2]; pH 13.0, 29 ± 1° C., 13 HRS) was 0.38% and the “% Assay of Epoprostenol by Area” value ([2]; pH 13.0, 29 ± 1° C., 14 HRS) was 98.0%. The “Area % of 6-keto et al. impurities” value ([2]; pH 13.0, 29 ± 1° C., 14 HRS) was 0.37%, the “% Assay of Epoprostenol by Area” value ([2]; pH 13.0, 29 ± 1° C., 15 HRS) was 97.8% and the “Area % of 6-keto et al. impurities” value ([2]; pH 13.0, 29 ± 1° C., 15 HRS) was 0.39%. The “% Assay of Epoprostenol by Area” value ([2]; pH 13.0, 29 ± 1° C., 24 HRS) was 97.5%, the “Area % of 6-keto et al. impurities” value ([2]; pH 13.0, 29 ± 1° C., 24 HRS) was 0.39% and the “% Assay of Epoprostenol by Area” value ([2]; pH 13.0, 29 ± 1° C., 36 HRS) was 97.5%. The “Area % of 6-keto et al. impurities” value ([2]; pH 13.0, 29 ± 1° C., 36 HRS) was 0.45%, the “% Assay of Epoprostenol by Area” value ([2]; pH 13.0, 29 ± 1° C., Initial) was 100.0% and the “Area % of 6-keto et al. impurities” value ([2]; pH 13.0, 29 ± 1° C., Initial) was 0.072%. The drug degraded ([3]; D5W, after 8 hours) was “approximately 84%”, the “stability compared with normal saline” value ([3]; lactated Ringer's solution, 25° C. and 30° C.) was “comparable to that of normal saline” and the potency maintained ([3]; water, 30° C., for more than 18 hours) was “greater than 90%”.

For `N=C(N)NCCC[C@H](N)C(=O)O` [arginine], the “basic pKa” value [4] is listed as 10.8.
